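How tested: cells in 96-well plates exposed to compound for 48 hours at five concentrations. GI50 is the concentration that inhibits growth by half.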 Activity calls are given as the source filed them. Rule as the data show it: active = GI50 up to about 1.1 µM and inactive = higher. Non-standard residues stand in square brackets, D forms with d. Residues, ends and D or L forms follow the SMILES beside them. *: point of attachment. Bn2Val = CC(C)[C@@H](C(=O)*)N(Cc1ccccc1)Cc1ccccc1; NH(4-Cl-benzyl) = Clc1ccc(CN*)cc1; NMeV = CN[C@H](C(=O)O)C(C)C; dNMeA = CN[C@H](C)C(=O)O
How the values were obtained:
Assay in all cases: NCI-60 cell line screen, 48 h
[1] = system: A498
[2] = system: A549
[3] = system: CAKI-1
[4] = system: CCRF-CEM
[5] = system: COLO 205
[6] = system: HCC 2998
[7] = system: HCT-116
[8] = system: HOP-92
[9] = system: M14
[10] = system: MDA-MB-231
[11] = system: NCI-H460
[12] = system: OVCAR-5
[13] = system: PC-3
[14] = system: SK-MEL-28
[15] = system: SK-MEL-2
[16] = system: SK-MEL-5
[17] = system: SR
[18] = system: SW-620
[19] = system: DU-145
[20] = system: OVCAR-3

Compound	GI50 [1]	GI50 [2]	GI50 [3]	GI50 [4]	GI50 [5]	GI50 [6]	GI50 [7]	GI50 [8]	GI50 [9]	GI50 [10]	GI50 [11]	GI50 [12]	GI50 [13]	GI50 [14]	GI50 [15]	GI50 [16]	GI50 [17]	GI50 [18]	GI50 [19]	GI50 [20]
CC1CCCC(CC(=O)O)(CC(=O)O)C1 (stereo not given)	> 100 µM (inactive)	> 100 µM (inactive)	> 100 µM (inactive)	> 100 µM (inactive)	> 100 µM (inactive)	> 100 µM (inactive)	> 100 µM (inactive)	> 100 µM (inactive)	> 100 µM (inactive)	> 100 µM (inactive)	> 100 µM (inactive)	> 100 µM (inactive)	> 100 µM (inactive)	7.55 µM (inactive)	> 100 µM (inactive)	> 100 µM (inactive)	> 100 µM (inactive)	> 100 µM (inactive)		
COC(=O)c1cn(CCCC(=O)O)nn1		> 100 µM (inactive)	> 100 µM (inactive)	> 100 µM (inactive)	> 100 µM (inactive)	> 100 µM (inactive)	> 100 µM (inactive)	> 100 µM (inactive)		> 100 µM (inactive)	> 100 µM (inactive)		> 100 µM (inactive)	> 100 µM (inactive)	> 100 µM (inactive)	> 100 µM (inactive)		> 100 µM (inactive)	> 100 µM (inactive)	
CSC(SC)=C(C(=O)c1ccc(Cl)cc1)n1c(=O)sc2cc(Br)ccc21	> 100 µM (inactive)	> 100 µM (inactive)	23.1 µM (inactive)	69.2 µM (inactive)	66.4 µM (inactive)	> 100 µM (inactive)	51.3 µM (inactive)	31.5 µM (inactive)	> 100 µM (inactive)	> 100 µM (inactive)	> 100 µM (inactive)	> 100 µM (inactive)	> 100 µM (inactive)	> 100 µM (inactive)	> 100 µM (inactive)	> 100 µM (inactive)		> 100 µM (inactive)	> 100 µM (inactive)	> 100 µM (inactive)
COc1ccc(Nc2nc3ccccc3nc2-c2cccs2)cc1OC		> 10 µM (inactive)	> 10 µM (inactive)	> 10 µM (inactive)	> 10 µM (inactive)	> 10 µM (inactive)	> 10 µM (inactive)	> 10 µM (inactive)	> 10 µM (inactive)	> 10 µM (inactive)	> 10 µM (inactive)	> 10 µM (inactive)	9.35 µM (inactive)	> 10 µM (inactive)	> 10 µM (inactive)	> 10 µM (inactive)	5.89 µM (inactive)	> 10 µM (inactive)	> 10 µM (inactive)	> 10 µM (inactive)
CCC(C)C(=O)OC1C(=O)OC2CC3C(C)=CC(=O)C(O)C3(C)C3C4(O)OCC23C1C(C)C4O (stereo not given)	0.514 µM (active)	0.155 µM (active)	0.115 µM (active)	< 0.0131 µM (active)	0.205 µM (active)	< 0.0262 µM (active)	< 0.01 µM (active)	0.0208 µM (active)	< 0.0146 µM (active)	0.032 µM (active)	< 0.014 µM (active)	0.0776 µM (active)	< 0.0199 µM (active)	< 0.0164 µM (active)	< 0.0292 µM (active)	< 0.0108 µM (active)		0.0136 µM (active)	< 0.019 µM (active)	< 0.0199 µM (active)
O=C(CCO)OCCCCCC/C=C\CCCCCC/C=C\CCCCCCCCOC(=O)CCO	23.3 µM (inactive)	15.9 µM (inactive)	21.7 µM (inactive)	3.05 µM (inactive)	> 100 µM (inactive)	16.5 µM (inactive)	16.3 µM (inactive)	18.2 µM (inactive)	17.1 µM (inactive)	18.5 µM (inactive)	17.3 µM (inactive)	18.3 µM (inactive)	17.1 µM (inactive)	19.5 µM (inactive)	17.3 µM (inactive)	> 100 µM (inactive)		26.6 µM (inactive)	16.4 µM (inactive)	23 µM (inactive)
CCOC(=O)C12OC(OCC)(CC1(OCC)OCC)C1(CC1)C2=O (stereo not given)	> 100 µM (inactive)	> 100 µM (inactive)	> 100 µM (inactive)	> 100 µM (inactive)	> 100 µM (inactive)	> 100 µM (inactive)	> 100 µM (inactive)	> 100 µM (inactive)	> 100 µM (inactive)	> 100 µM (inactive)	> 100 µM (inactive)	> 100 µM (inactive)	> 100 µM (inactive)	> 100 µM (inactive)	> 100 µM (inactive)	> 100 µM (inactive)		> 100 µM (inactive)	> 100 µM (inactive)	> 100 µM (inactive)
O=C(c1ccco1)N(C(=O)N1CCC(c2ccccc2)CC1)c1ccccc1	94.8 µM (inactive)		> 100 µM (inactive)	26.5 µM (inactive)	39.7 µM (inactive)		42.7 µM (inactive)		41.4 µM (inactive)	> 100 µM (inactive)		> 100 µM (inactive)	22.3 µM (inactive)	62.7 µM (inactive)	42.5 µM (inactive)	21.6 µM (inactive)		> 100 µM (inactive)	83 µM (inactive)	47 µM (inactive)
CC(=O)NCc1nc(C#N)c(N)o1	> 100 µM (inactive)	> 100 µM (inactive)	> 100 µM (inactive)	> 100 µM (inactive)	> 100 µM (inactive)	> 100 µM (inactive)	> 100 µM (inactive)	> 100 µM (inactive)	> 100 µM (inactive)	> 100 µM (inactive)	> 100 µM (inactive)	> 100 µM (inactive)	> 100 µM (inactive)	> 100 µM (inactive)	> 100 µM (inactive)			> 100 µM (inactive)	> 100 µM (inactive)	> 100 µM (inactive)
CCCCOCCOCCOC1=CC(=O)c2c(O)ccc(O)c2C1=O		1.8 µM (inactive)	1.95 µM (inactive)	2.14 µM (inactive)	1.4 µM (inactive)	1.82 µM (inactive)	1.76 µM (inactive)	2.9 µM (inactive)	1.51 µM (inactive)	1.73 µM (inactive)	1.95 µM (inactive)		3 µM (inactive)	1.53 µM (inactive)	1.9 µM (inactive)	1.05 µM (active)	2.7 µM (inactive)	1.57 µM (inactive)	1.7 µM (inactive)	1.61 µM (inactive)
N#CCCN(CCCN(C(=O)N(c1ccccc1)c1ccccc1)c1ccccc1)C(=O)Nc1ccccc1	> 100 µM (inactive)	18.9 µM (inactive)	> 100 µM (inactive)	15.9 µM (inactive)	> 10 µM (inactive)	> 100 µM (inactive)	29.6 µM (inactive)	> 100 µM (inactive)	> 100 µM (inactive)	> 100 µM (inactive)	40 µM (inactive)	> 100 µM (inactive)	18.7 µM (inactive)	> 100 µM (inactive)	> 100 µM (inactive)	24.9 µM (inactive)		> 100 µM (inactive)	> 100 µM (inactive)	> 100 µM (inactive)
O=C1CC(n2ccnc2)c2c(Cl)sc(Cl)c21 (stereo not given)		24.5 µM (inactive)	19.5 µM (inactive)	4.78 µM (inactive)	18.2 µM (inactive)		14.2 µM (inactive)		15.3 µM (inactive)	18.9 µM (inactive)	26 µM (inactive)	22.5 µM (inactive)	15.7 µM (inactive)	23.7 µM (inactive)	21.4 µM (inactive)	18.4 µM (inactive)	2.92 µM (inactive)	11 µM (inactive)	16.1 µM (inactive)	15.4 µM (inactive)
Cc1cc(-c2c(Br)cc(C(=O)O)n2C)on1	> 100 µM (inactive)	> 100 µM (inactive)	> 100 µM (inactive)	> 100 µM (inactive)	> 100 µM (inactive)		> 100 µM (inactive)	> 100 µM (inactive)	> 100 µM (inactive)	> 100 µM (inactive)	> 100 µM (inactive)	> 100 µM (inactive)	> 100 µM (inactive)	> 100 µM (inactive)	> 100 µM (inactive)	> 100 µM (inactive)		> 100 µM (inactive)	> 100 µM (inactive)	> 100 µM (inactive)
O=C(CCN1CCCCC1)Nc1ccc2sc3ccccc3c(=O)c2n1		15 µM (inactive)	11.5 µM (inactive)	7.91 µM (inactive)	8.32 µM (inactive)	14.4 µM (inactive)	6.46 µM (inactive)	0.411 µM (active)	13.6 µM (inactive)	14.7 µM (inactive)	13.7 µM (inactive)	18.2 µM (inactive)	11.9 µM (inactive)	16.7 µM (inactive)	> 10 µM (inactive)	21.6 µM (inactive)	12.2 µM (inactive)	8.3 µM (inactive)	18.4 µM (inactive)	15.8 µM (inactive)
CC(C)[C@H](NC(=O)[C@H](C(C)C)N(Cc1ccccc1)Cc1ccccc1)C(=O)N(C)[C@H](C(=O)N1CCC[C@H]1C(=O)N(C)[C@H](C)C(=O)NCc1ccc(Cl)cc1)C(C)C (Bn2Val-V[NMeV]P[dNMeA]-{NH(4-Cl-benzyl)})		4.04 µM (inactive)	5.94 µM (inactive)	2.42 µM (inactive)	2.09 µM (inactive)		3.02 µM (inactive)	2.84 µM (inactive)	4.01 µM (inactive)	2.65 µM (inactive)	3.96 µM (inactive)	4.9 µM (inactive)	2.75 µM (inactive)	4.98 µM (inactive)	1.62 µM (inactive)	3.89 µM (inactive)	3.85 µM (inactive)	3.72 µM (inactive)	4.11 µM (inactive)	2.76 µM (inactive)

From ChEMBL document CHEMBL1201862, “PubChem BioAssay data set” (2004)
